Experimental data taken from US6727382B1, “Peroxyacids” (Unilever Patent Holdings, B.V., priority 1992, dated 2004).

What was measured:
[1] = Bleaching of tea stained test cloths, reflectance at 460 nm (Example VII); settings: 40° C., 30 minutes, 1×10^−3 mol peracid in 100 ml demineralised water, EDTA 2×10^−5 M
Protocol: (§1) Bleaching experiments were carried out in a temperature controlled glass vessel, equipped with a magnetic stirrer, thermocouple and a pH electrode, at a constant temperature of 40° C. pH was adjusted using 0.1M NaOH.
(§2) Peracid prepared according to example I was exchanged with SDS and 1×10^−3 mol added to 100 ml demineralised water and ethylene diamine tetraacteic acid (EDTA) (2×10^−5 M) in the glass vessel. Thereafter, tea stained test cloths were immersed in the solution for 30 minutes. The liquor to cloth ratio was greater than 20:1. After rinsing with tap water, the cloths were dried in a tumble drier.
(§3) Bleaching performance was determined using a Instrumental Colour Systems Micro-match to measure the reflectance, at 460 nm, of the cloths both before and after treatment. The difference (ΔR460*) in the values gives a measure of the effectiveness of the treatment.

[2] = Bleaching of tea stained test cloths with peroxyacid formed in situ with SDS or Coco-PAS (Example VIII); settings: EDTA 2×10^−5 M, pH 10; for ΔR460* Coco-PAS: peracid 1×10^−3 mol with Coco-PAS 2×10^−3 mol in 100 ml demineralised water; for ΔR460* SDS: peracid 1×10^−3 mol with SDS 2×10^−3 mol in 100 ml demineralised water
Protocol: as §1, §2, §3
Example VI was repeated using materials prepared according to examples I-VI and the comparative example. Peracid (1×10^−3 mol) was added to a glass vessel containing 100 ml demineralised water, EDTA, (2×10^−5 M), and SDS or Coco-PAS (2×10^−3 mol), i.e cationic peroxyacids according to the invention were formed in-situ. The pH was adjusted to pH 10 using 0.1NaOH. The difference (ΔR460*) in the values gives a measure of the effectiveness of the bleaching performance.

Row | Compound | ΔR460* bleaching performance ([1]; pH 7.0) | ΔR460* bleaching performance ([1]; pH 8.0) | ΔR460* bleaching performance ([1]; pH 9.0) | ΔR460* Coco-PAS [2] | ΔR460* SDS [2] | ΔR460* bleaching performance ([1]; pH 10.0)
1 | C[N+](C)(C)CCOC(=O)Oc1ccc(S(=O)(=O)[O-])cc1 [CSPC, 2-(N,N,N-trimethylammonium)ethyl-4-sulphonyl carbonate] | 20.0 | 22.0 | 20.0 | – | – | –
2 | CS(=O)(=O)[O-].C[N+](C)(C)Cc1ccc(C(=O)OO)cc1 [Example I, α-Trimethylammonium-4-peroxytoluic Acid Methane Sulphonate] | – | – | – | 26.7 | 24.0 | –
3 | C[N+](C)(Cc1ccccc1)Cc1ccc(C(=O)OO)cc1.Cc1ccc(S(=O)(=O)[O-])cc1 [Example II, α-Benzyl-dimethylammonium-4-peroxytoluic Acid Tosylate] | – | – | – | 18.9 | 21.9 | –
4 | O=C(CCCCCN1C(=O)c2ccccc2C1=O)OO [PAP] | 13.0 | 13.0 | 6.0 | – | – | 4.0
5 | CCCCCCCCC(=O)Oc1ccc(S(=O)(=O)[O-])cc1.[Na+] [SNOBS, Sodium nonoyloxybenzene sulphonate] | – | – | 7.5 | – | – | 5.0
6 | α-Butyl-dimethylammonium-4-peroxytoluic Acid Tosylate [Example V] | – | – | – | 21.8 | 23.7 | –
7 | α-Heptyl-Dimethylammonium-4-Peroxytoluic Acid Tosylate [Example IV] | – | – | – | – | 14.5 | –
8 | α-Octyl-dimethylammonium-4-peroxytoluic Acid Tosylate [Comparison] | – | – | – | 7.6 | 8.0 | –
9 | α-Pentyl-dimethylammonium-4-peroxytoluic Acid Tosylate [Example VI] | – | – | – | 18.6 | 21.9 | –
10 | αHexyl-dimethylammonium-4-peroxytoluic Acid Tosylate [Example III] | – | – | – | 16.1 | 23.5 | –
